Data as given in US20160058743A1, “METHODS FOR TREATING SENSORIMOTOR IMPAIRMENTS ASSOCIATED WITH CERTAIN TYPES OF STROKE USING AMINOPYRIDINES” (ACORDA THERAPEUTICS, INC., priority 2013, published 2016).
Several values for one entry are separate records, joined by “and”; a condition that tells them apart may be missing. Equal values may be shown once. Entries after “also recorded” stand apart in the source; their conditions may differ. Read-outs that look alike come from different tables or passages of the source.

How the values were obtained:
[1] = 4-aminopyridine plasma levels 90 min after dosing (LC-MS/MS); type: in vivo, Sprague Dawley rats; settings: Sprague Dawley, rat, oral, read-out: Mean (SE) 4-aminopyridine Plasma Level
Method: Blood sampling: After the on-drug behavior assessments were completed (Days 30, 32, 44, 46, 58 and 60), approximately 300 microliter blood sample was taken exactly 90 min after dosing to assess 4-AP plasma levels at that time. Blood was collected from the saphenous vein of each animal. Blood was collected into K3 EDTA tubes and centrifuged at 10,000 rpm for 10 minutes at 4 degrees C. Plasma was obtained, frozen and stored at approximately −80 C. Samples were analyzed for 4-AP levels. 4-AP concentration was determined using a validated liquid chromatography with tandem mass spectrometric detection method in positive electrospray mode.
Treatment groups: Animals had MCAO surgery and were allowed to recover for 56 days. Animals were then randomized into 2 groups based on their baseline behavior. Par oral dosing b.i.d. was initiated in the evening of Day 56 after MCAO. Behavior testing during dosing periods was started 1 hour after dosing. Blood was collected via saphenous vein just prior to and during treatment phases just after behavioral testing (90 minutes post dosing). All dosing was via gastric gavage, volume not to exceed 2 mL/kg.
Blood sampling: 300 microliter blood sample was collected from the saphenous vein of each animal on Day 56 just prior to the first dose and then exactly 90 min after the 6 dose at each dose level. Blood was collected, centrifuged, stored and analyzed as described in Example 2, above.

[2] = cited from earlier work
[3] = system: rats with middle cerebral artery occlusion (MCAO); test: Hindlimb placing test after MCAO; type: in vivo, Sprague Dawley rats
[4] = system: rats with middle cerebral artery occlusion (MCAO); test: Forelimb placing test after MCAO; type: in vivo, Sprague Dawley rats
[5] = system: rats with middle cerebral artery occlusion (MCAO); test: Forelimb placing test after MCAO; type: in vivo, Sprague Dawley rats; settings: for Forelimb Placing Total Score: 0=normal, 12=maximally impaired
Excerpt: In particular, the MCAO model in Sprague Dawley rats that was utilized in the experiments presented below mimics the conditions in human ischemic stroke. In this model, focal cerebral infarcts were made by permanent occlusion of the proximal right middle cerebral artery (MCA) using a modification of the method of Tamura et al. (No To Shinkei 1986; 38:747-51). Briefly, the temporalis muscle was bisected and reflected through an incision made midway between the eye and the ear canal. The proximal MCA was exposed through a subtemporal craniectomy without removing the zygomatic arch and without transecting the facial nerve.
In this experiment, Sprague Dawley rats were anesthetized, subjected to a surgery resulting in middle cerebral artery occlusion (MCAO), treated with and without 4-aminopyridine and behavioral assessments were performed as described below. Treatment was initiated at 4 weeks after stroke.
Dosing and Treatment: Rats were treated in accordance with the dosing schedule shown in Tables 2A, 2B, 3 and FIG. 2, with each Phase being a two week period of time. A solution of 4-AP was used in this experiment. Dosing was started at 4 weeks after ischemic event. 4-aminopyridine was dissolved in water for injection (WFI, Cellgro) and sterile filtered. Final concentrations of 0.315 mg/mL or 1.0 mg/mL of 4-aminopyridine were delivered at 2 mL/kg by gastric gavage, resulting in final doses of 0.63 mg/kg and 2 mg/kg respectively. Vehicle control treatment was WFI delivered at 2 mL/kg by gastric gavage. This study was divided into three treatment phases (1-3) with each randomized cohort of animals receiving a different dose level during each of the treatment phases. Starting on day 30 after MCAO (Day 30, start of phase 1), the animals received gavage dosing of solutions (2 mL/kg) approximately 12 hours apart, for a total of five doses. The same schedule was repeated with different treatment on Day 44 and Day 58 for phase 2 and 3 of the study, respectively. Animals were not treated during the 10 days between phases (washout period).
Treatment groups: Dosing was started 4 weeks after MCAO surgery. During these 4 weeks, weekly behavioral assessments, as defined below, were performed. Two dose levels of 4-AP plus vehicle control were assessed, with treatment starting at 4 weeks after ischemic event. All dosing was via gastric gavage, volume not to exceed 2 mL/kg. Animals were given the first dose and behavioral assessments were performed starting 60 minutes after dosing. Animals then received the second dose that day at the appropriate time and b.i.d (preferably every 12 hours) thereafter for 2 more days (3 total days of dosing, 5 total doses). One hour after the 5th dose, animals were subjected to behavioral assessments as defined below. Following the final behavioral assessment, drug was withdrawn for 10 or 11 days, behavior was re-assessed, and then animals were re-challenged with a cross-over treatment (Phase 2 of Table 2B) as described in Tables 2A, 2B and 3, followed by the same behavioral testing and dosing regimen. This cross-over was repeated one more time as well (Phase 3 of Table 2B) (see FIG. 2).
Behavioral test details: Behavioral evaluations were done by evaluators blinded to treatment assignment. Blinded assessments of sensorimotor function were performed just prior to MCAO surgery, 24 hours after MCAO surgery and weekly thereafter until the first phase of dosing using limb placing and body swing behavioral tests. As described above, behavioral assessments were timed exactly with dosing times. Animals were tested one hour after the 1st and 5th doses of each phase (i.e., Days 30 and 32 of the first phase, Days 44 and 46 of the second phase; and Days 58 and 60 of the third phase); animals were also tested during the washout periods on Days 42 and 56. Animals were given the first dose, behavioral assessments were performed starting 60 minutes later, and blood was collected 90 minutes after dosing. […]

For `Nc1ccncc1` [4-AP, 4-aminopyridine], the concentration at 90 min ([1]; 0.5 mg/kg, Example 17 dose escalation, Dose Level 0.5 mg/kg b.i.d. p.o., 90 min after 6th dose) was 68.3 ng/mL, the concentration at 90 min ([1]; 0.63 mg/kg, Group 1, Phase 2, Low 0.63 mg/kg b.i.d. p.o., 90 min after dosing) was 64 ng/mL and the concentration at 90 min ([1]; 0.63 mg/kg, Group 2, Phase 1, Low 0.63 mg/kg b.i.d. p.o., 90 min after dosing) was 78.1 ng/mL. The concentration at 90 min ([1]; 0.63 mg/kg, Group 3, Phase 3, Low 0.63 mg/kg b.i.d. p.o., 90 min after dosing) was 61.8 ng/mL, the concentration at 90 min ([1]; 1 mg/kg, Example 17 dose escalation, Dose Level 1.0 mg/kg b.i.d. p.o., 90 min after 6th dose) was 114 ng/mL and the concentration at 90 min ([1]; 2 mg/kg, Example 17 dose escalation, Dose Level 2.0 mg/kg b.i.d. p.o., 90 min after 6th dose) was 185 ng/mL. For the same compound, the concentration at 90 min ([1]; 2 mg/kg, Group 1, Phase 1, High 2.0 mg/kg b.i.d. p.o., 90 min after dosing) was 142 ng/mL, the concentration at 90 min ([1]; 2 mg/kg, Group 2, Phase 3, High 2.0 mg/kg b.i.d. p.o., 90 min after dosing) was 144 ng/mL and the concentration at 90 min ([1]; 2 mg/kg, Group 3, Phase 2, High 2.0 mg/kg b.i.d. p.o., 90 min after dosing) was 129 ng/mL. The half life ([2]; Hayes et al., J. Clin. Pharmacol. 2003) was 1 to 1.5 h, the “4-AP plasma concentrations obtained in clinical studies” value ([2]; typical, (94 ng/mL^−1)) was under 1 µM and the “Hind limb placing score compared to vehicle” value ([3]; Example 17, 0.5 mg/kg b.i.d. p.o., Day 59 post-MCAO) was “improved with the low dose but did not reach significance”. For the same compound, the “Hind limb test compared to vehicle” value ([3]; Example 17, 1 mg/kg b.i.d. p.o., Day 62 post-MCAO, p<0.05) was “measureable improvement”, the “Hind limb function compared to vehicle” value ([3]; Example 17, 2 mg/kg b.i.d. p.o., Day 65 post-MCAO, p<0.001) was “significant improvements” and the “Forelimb placing compared to vehicle” value ([4]; Example 17, 0.5 mg/kg b.i.d. p.o., Day 59 post-MCAO, p<0.001) was “significantly improved in forelimb placing”. The “Forelimb test compared to vehicle” value ([4]; Example 17, 1 mg/kg b.i.d. p.o., Day 62 post-MCAO, p<0.001) was “measureable improvement”, the “Forelimb function compared to vehicle” value ([4]; Example 17, 2 mg/kg b.i.d. p.o., Day 65 post-MCAO, p<0.0001) was “significant improvements” and the “Effect on forelimb function (forelimb placing test)” value ([5]; Example 2, low (0.63 mg/kg) or high (2 mg/kg) dose b.i.d. p.o., started 4 weeks post MCAO, dose-responsive, reversible) was “effective to improve forelimb function; also recorded: significant improvement”. For the same compound, the “Forelimb Placing Total Score” value ([5]; Group 2, D 30 post-MCAO, Low 4-AP 0.63 mg/kg b.i.d. p.o., 1 h after 1st dose, group Mean, N=15) was 4.20, the “Forelimb Placing Total Score” value ([5]; Group 2, D 58 post-MCAO, High 4-AP 2.0 mg/kg b.i.d. p.o., 1 h after 1st dose, group Mean, N=15) was 1.90 and the “Forelimb Placing Total Score” value ([5]; Group 3, D 44 post-MCAO, High 4-AP 2.0 mg/kg b.i.d. p.o., 1 h after 1st dose, group Mean, N=15) was 2.67. For the same compound, the “Forelimb Placing Total Score” value ([5]; Group 3, D 44 post-MCAO, High 4-AP 2.0 mg/kg b.i.d. p.o., 1 h after 1st dose, individual rats) was 4.00 (3×) and 1.00 and 2.50 and 3.00 (3×) and 4.50 (2×) and 0.00 (3×) and 5.00 and 1.50, the “Forelimb Placing Total Score” value ([5]; Group 3, D 46 post-MCAO, High 4-AP 2.0 mg/kg b.i.d. p.o., 1 h after 5th dose, group Mean, N=15) was 1.33 and the “Forelimb Placing Total Score” value ([5]; Group 3, D 46 post-MCAO, High 4-AP 2.0 mg/kg b.i.d. p.o., 1 h after 5th dose, individual rats) was 3.00 (3×) and 0.00 (5×) and 2.00 and 1.50 (3×) and 1.00 (2×) and 2.50. For the same compound, the “Forelimb Placing Total Score” value ([5]; Group 3, D 58 post-MCAO, Low 4-AP 0.63 mg/kg b.i.d. p.o., 1 h after 1st dose, group Mean, N=15) was 2.00, the “Forelimb Placing Total Score” value ([5]; Group 3, D 58 post-MCAO, Low 4-AP 0.63 mg/kg b.i.d. p.o., 1 h after 1st dose, individual rats) was 3.00 (4×) and 0.50 and 2.00 and 3.50 and 1.50 (2×) and 2.50 (2×) and 4.00 and 0.00 (3×) and the “Forelimb Placing Total Score” value ([5]; Group 3, D 60 post-MCAO, Low 4-AP 0.63 mg/kg b.i.d. p.o., 1 h after 5th dose, group Mean, N=15) was 1.80. The “Forelimb Placing Total Score” value ([5]; Group 3, D 60 post-MCAO, Low 4-AP 0.63 mg/kg b.i.d. p.o., 1 h after 5th dose, individual rats) was 3.00 (4×) and 1.00 (2×) and 2.00 (2×) and 3.50 and 0.50 and 2.50 (2×) and 0.00 (3×).
